In PubChem BioAssay (NCI) one finds GI50 and TGI data, which are given here for 18 molecules.

Test in all cases: growth of human tumour cells (NCI), 48 h
Test [1] has as its system SN12C renal.
Test [2] concerns OVCAR-8 ovarian.
In test [3] the test system is OVCAR-5 ovarian.
The subject of test [4] is HL-60(TB) leukemia.
Test [5] relates to T-47D breast.
Test [6] has as its system UO-31 renal.
In test [7] the test system is HCC-2998 colon.
Test [8] deals with LOX IMVI melanoma.
In test [9] the test system is OVCAR-3 ovarian.
Test [10] relates to U251 CNS.

Structures are written as SMILES.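 Grown in 96-well plates, cells were treated for 48 hours with each compound at five concentrations. Insufficient inhibition: endpoint recorded as highest concentration tested. GI50 marks 50% less growth. TGI: total growth inhibition.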

On to `CC(=O)c1c(C(F)(F)F)n([O-])c2ccc(C)cc2[n+]1=O`, for which the GI50 is 1.5 µM in [1]; 3.82 µM in test [2]; 7 µM in test [3]; 1.92 µM in [4]; 6.52 µM in test [5]; 4.39 µM in test [6]. The GI50 in [7] is 1.89 µM; in [8], 3.29 µM; in test [9] it was 7.09 µM; in test [10], 2.79 µM. Moreover, the TGI in test [1] is 4.72 µM; in [2], greater than 100 µM; in test [3] it was 40.3 µM; in [4] it was 10.5 µM; in test [5], greater than 67.1 µM; in test [7], 8.53 µM. In addition, the TGI in test [8] is greater than 44.2 µM; in [9], greater than 48.2 µM; in test [10], greater than 35.4 µM.

For the molecule `CSC(=S)N/N=C(\C)c1cccc(C)n1`, the TGI in [1] is 21.9 µM; in test [2] it was 28.1 µM; in [3] it was 86.5 µM; in test [4] it was 3.07 µM; in [5], greater than 67.5 µM; in [6], 13.2 µM. For the same molecule, the TGI in test [7] was 30.4 µM; in test [8], 15.1 µM; in test [9] it was 1.99 µM; in [10], 33.8 µM.

On to `Cn1cc(-c2nonc2-c2cn(C)c3ccccc23)c2ccccc21`, for which the GI50 is 1.76 µM in test [1]; 1.5 µM in test [2]; 4.51 µM in [3]; 0.483 µM in test [4]; 4.77 µM in test [5]; 0.972 µM in test [6]. Further, the GI50 in test [7] was 3.07 µM; in test [8], 1.24 µM; in test [9], 0.402 µM; in [10], 0.689 µM. Moreover, the TGI is greater than 100 µM in [1]; greater than 100 µM in test [2]; greater than 100 µM in [3]; 1.72 µM in test [4]; greater than 100 µM in test [5]; greater than 100 µM in [6]. Besides, the TGI in [7] was greater than 100 µM; in test [8], greater than 100 µM; in test [9], 3.42 µM; in test [10], greater than 100 µM.

As for `N#Cc1c(N)[nH]c2ccc(Sc3ccccc3)cc12`, the TGI in test [1] was determined as 6.64 µM; in test [2], 12 µM; in test [3], 18 µM; in [4], 1.92 µM; in test [5], 23 µM; in test [6] it was 13.9 µM. Moreover, the TGI in [7] turned out to be 17.3 µM; in test [8], 7.56 µM; in [9] it was 15.8 µM; in [10], 17.5 µM.

With `c1ccc2c3c([nH]c2c1)C1CCCN1CC3` (stereo not drawn), the TGI in test [1], in test [2], in test [3], in [4], in test [5] and in test [6] was greater than 10 µM throughout. Also, the TGI in test [7], in test [8], in [9] and in test [10] was greater than 10 µM throughout.

As to `CCC1(O)C(=O)OCc2c1cc1n(c2=O)Cc2cc3cc(N)ccc3nc2-1` (stereo not drawn), the TGI in test [1] was 0.697 µM; in [2] it was 4.45 µM; in test [3] it was 2.94 µM; in [4], 0.0145 µM; in test [5], greater than 100 µM; in [6], 0.0864 µM. The TGI was determined as 1.37 µM in test [7], 0.059 µM in test [8], 0.469 µM in test [9] and 0.129 µM in test [10].

`CC(C)(C)CN1CCn2c(nc3c(N)nccc32)S1`: the GI50 in test [1] was 6.55 µM; in test [2], 6.27 µM; in [3] it was 12.9 µM; in test [4], 4.77 µM; in [5] it was 13 µM; in test [6], 37.1 µM. Besides, the GI50 was 13.7 µM in [7], 9.5 µM in [8], 12.3 µM in test [9] and 13.3 µM in test [10]. The TGI in [1] was greater than 100 µM; in test [2], greater than 100 µM; in test [3] it was 42 µM; in test [4], 25.7 µM; in [5], greater than 100 µM; in [6] it was greater than 100 µM. Further, the TGI in [7] came to 34.8 µM; in test [8], 23.5 µM; in test [9], 29.3 µM; in [10], 47.2 µM.

In the case of `C[CH2][Pb]([CH2]C)([CH2]C)[O]C(=O)c1ccc2ccccc2n1`, the GI50 in test [1], in test [2], in test [3], in test [4], in [5] and in [6] was greater than 10 µM throughout. Further, the GI50 in test [7], in [8], in test [9] and in [10] was greater than 10 µM throughout. Also, the TGI in [1], in [2], in test [3], in test [4], in test [5] and in test [6] was greater than 10 µM throughout. The TGI in test [7], in test [8], in [9] and in test [10] was greater than 10 µM each time.

As to `C[C@@H]1O[C@@H](O[C@H]2CC[C@@]3(C)[C@H](CCC4[C@@H]3C(O)C[C@]3(C)[C@@H](c5ccc(=O)oc5)CC[C@]43O)C2)[C@H](O)[C@H](O)[C@H]1O` (stereo partly drawn), the GI50 in test [1] is less than 0.00325 µM; in test [2] it was 0.00415 µM; in [3] it was 0.00583 µM; in [4], 0.0049 µM; in test [5], less than 0.00325 µM; in test [6], 0.00577 µM. Moreover, the GI50 is 0.0075 µM in test [7], 0.00519 µM in test [8], 0.00431 µM in test [9] and 0.0052 µM in test [10]. The TGI was 0.758 µM in test [1]; 0.00801 µM in test [2]; less than 0.0113 µM in test [3]; 0.00768 µM in test [4]; 0.0241 µM in test [5]; 0.015 µM in test [6]. Moreover, the TGI came out at 0.0168 µM in test [7], 0.0101 µM in test [8], 0.00597 µM in [9] and 0.00974 µM in test [10].

For the molecule `CC1(C)CCC[C@]2(C)[C@@H](C=O)C(C=O)=CC[C@@H]12`, the TGI amounted to 39.9 µM in test [1]; 31.2 µM in test [2]; 33.2 µM in test [3]; 36.5 µM in [4]; 60.3 µM in test [5]; 29.9 µM in test [6]. The TGI in [7] is 32.7 µM; in [8] it was 42.2 µM; in test [9], 28 µM; in test [10], 46.9 µM.

Turning to `Cc1nc2ccccc2c(/C=C/c2ccc(Br)cc2)c1C(=O)/C=C/c1ccccc1`, the GI50 is 1.76 µM in test [1]; 1.57 µM in [2]; 1.84 µM in test [3]; 2.17 µM in test [4]; 1.46 µM in [5]; 1.21 µM in [6]. Also, the GI50 was 1.8 µM in test [7], 1.65 µM in test [8], 1.52 µM in test [9] and 1.57 µM in test [10]. Further, the TGI in [1] worked out at 3.68 µM; in test [2], 3.48 µM; in test [3] it was 3.37 µM; in [4] it was 5.27 µM; in [5], 3.63 µM; in test [6], 2.44 µM. Further, the TGI in [7] was determined as 3.54 µM; in test [8], 3.01 µM; in test [9] it was 3.14 µM; in test [10] it was 2.97 µM.

Turning to `COC12c3ccccc3-c3ccccc3C1[C@H]1C(=O)OC(=O)[C@H]12` (stereo partly drawn), the TGI in test [1], in [2], in test [3], in test [4], in test [5] and in [6] was greater than 10 µM throughout. Moreover, the TGI in test [7], in test [8], in test [9] and in test [10] was greater than 10 µM throughout.

As for `BrCc1ccc(CBr)cc1`, the GI50 in test [1] is 2.2 µM; in test [2], 5.52 µM; in [3], 9.61 µM; in [4] it was 7.6 µM; in [5] it was 12.7 µM; in [6], 7.58 µM. Besides, the GI50 is 6.4 µM in test [7], 4.51 µM in [8], 4.1 µM in [9] and 6.25 µM in [10]. In addition, the TGI is 6.27 µM in test [1]; 20.9 µM in [2]; 29.1 µM in test [3]; 48.8 µM in test [5]; greater than 63.2 µM in test [6]; 15.3 µM in test [7]. In addition, the figures for the TGI in test [8], in [9] and in [10] were greater than 100 µM, 17.4 µM and greater than 100 µM, respectively.

`COC(=O)c1nc(-c2ccccc2)oc1S(=O)(=O)n1nc(C)cc1N`: the GI50 in [1] was 5.64 µM; in test [2], 19.7 µM; in [3], 13.8 µM; in test [4], 3.02 µM; in test [5] it was 3.84 µM; in [6], 8.59 µM. Besides, the GI50 in [7] is 18.2 µM; in [8] it was 1.51 µM; in [9], 2.03 µM; in test [10] it was 16.5 µM. Besides, the TGI is 19.7 µM in test [1]; 50.3 µM in test [2]; 28.8 µM in test [3]; 12.5 µM in test [4]; 18.3 µM in test [5]; 21.1 µM in test [6]. Moreover, the TGI turned out to be 32.2 µM in test [7], 3.34 µM in test [8], 3.99 µM in test [9] and 30.8 µM in test [10].

Regarding `CC(C)(C)c1ccc(C(=O)Nc2sc3c(c2C(N)=O)CCC(=O)C3)cc1`, the GI50 is 0.654 µM in test [1]; 0.831 µM in [2]; 1.49 µM in test [3]; 0.481 µM in test [4]; 0.261 µM in [5]; 0.425 µM in test [6]. Further, the GI50 in [7] is 1.97 µM; in test [8] it was 0.398 µM; in [9] it was 0.426 µM; in [10] it was 0.345 µM. The TGI in [1] stood at 2.05 µM; in test [2], 4.85 µM; in test [3] it was 3.82 µM; in test [4], 4.82 µM; in test [5], 1.65 µM; in test [6] it was 1.46 µM. Further, the TGI in test [7] was 4.22 µM; in [8], 1.51 µM; in [9], 1.52 µM; in test [10], 1.43 µM.

In the case of `Cc1cc(N(CCC#N)CCC#N)ccc1/C=C1N=C(/C=C\c2ccccc2)N(c2ccc(Cl)cc2)C\1=O`, the TGI is greater than 100 µM in [1]; greater than 100 µM in test [2]; greater than 100 µM in [3]; greater than 100 µM in [4]; greater than 100 µM in test [5]; greater than 53.9 µM in test [6]. The TGI in [7], in [8], in test [9] and in test [10] was greater than 100 µM throughout.

With `N#CN1CC[C@H](C(=O)Nc2ncc(-c3ccncc3)s2)C1`, the GI50 in test [1] is less than 0.0277 µM; in test [2] it was 0.0596 µM; in [3], 0.0576 µM; in test [4], less than 0.0171 µM; in test [5], less than 0.0177 µM; in [6], less than 0.0188 µM. The GI50 was 0.0844 µM in [7], less than 0.019 µM in test [8], less than 0.0162 µM in [9] and 0.0853 µM in [10]. The TGI in test [1] was 38.4 µM; in test [2] it was greater than 100 µM; in test [3] it was greater than 77.3 µM; in [4], less than 0.028 µM; in test [5], 1.24 µM; in [6], 0.758 µM. The TGI is 11 µM in test [7], greater than 100 µM in test [8], 0.989 µM in test [9] and 53.5 µM in test [10].

As to `CCN1C(=O)N(CC)C2C1NN=c1s/c(=C\c3ccccc3Br)c(=O)n12` (stereo not drawn), the GI50 in test [1] is 0.0519 µM; in [2], 0.0424 µM; in test [3] it was 0.061 µM; in test [4], 0.0241 µM; in [5], 13.5 µM; in [6] it was 0.205 µM. Also, the GI50 in [7] was 0.0392 µM; in test [8] it was 0.0284 µM; in test [9], 0.0266 µM; in test [10], 0.0418 µM. In addition, the TGI in test [1] is 31.2 µM; in [2], greater than 73.5 µM; in [3] it was greater than 48.7 µM; in test [4], 0.0639 µM; in test [5] it was 57.9 µM; in test [6], 34.4 µM. Further, the TGI stood at 4.12 µM in test [7], 16.6 µM in test [8], 0.0764 µM in test [9] and 22.3 µM in test [10].
